The source of these data is PubChem BioAssay (NCI).

Molecules are shown by their SMILES. Converted amounts (≈) assume the structure as drawn. “And” between values parts separate entries of the source, which are not always exact repeats. Equal values may be shown once.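 96-well plates; 48 h exposure; 5 concentrations. Endpoints by linear interpolation between flanking doses. Not reached: highest tested concentration assigned. Here, GI50 denotes the concentration required for 50% inhibition of growth. At the TGI there is no net growth.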

Test systems include SR leukemia; TK-10 renal; UO-31 renal; RPMI-8226 leukemia.
Assay in all cases: growth of human tumour cells (NCI), 48 h

For `CS(=O)(=O)CC(Cc1ccccc1)C(=O)O` (stereo not given), the GI50 with SR leukemia is 10.6 µg/mL (≈ 43.7 µM); in the experiment with TK-10 renal, 92.1 µg/mL (≈ 380 µM).
`COc1ccc(-c2cc(-c3ccccc3)c(C#N)c(=O)n2C2OC(COC(C)=O)C(OC(C)=O)C(OC(C)=O)C2OC(C)=O)cc1` (stereo not given): the TGI in the experiment on UO-31 renal and in the experiment with RPMI-8226 leukemia was over 100 µM each time. Moreover, the GI50 with RPMI-8226 leukemia is 47.3 µM and 11.5 µM.
